From patent publication US11117892B2, “Pyrrolo-pyridine derivative compound, method for preparing same, and pharmaceutical composition containing same as active ingredient for prevention or treatment of protein kinase-related diseases” (DAEGU-GYEONGBUK MEDICAL INNOVATION FOUNDATION, priority 2017, dated 2021)

How the values were obtained:
Assay in all cases: scanMAX Kinase assay panel
Type in all cases: binding
Details in all cases: read-out: % control
[1] = target: ABL1(F317L)-nonphosphorylated (Homo sapiens (Human), UniProt P00519, F317L)
Outline: (§1)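 Measurements came from scanMAX kinase selectivity profiling. Each value was normalised by subtracting the positive control and dividing by the span between the DMSO vehicle and the positive control, then multiplied by 100.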

PAK1 = PAK1 (Homo sapiens (Human), UniProt Q13153)
Outline: as §1

YANK3 = YANK3 (Homo sapiens (Human), UniProt Q86UX6)
Outline: as §1

WEE2 = WEE2 (Homo sapiens (Human), UniProt P0C1S8)
Outline: as §1

CAMK1B = CAMK1B (Homo sapiens (Human), UniProt Q6P2M8)
Outline: as §1

FLT3(K663Q) = FLT3(K663Q) (Homo sapiens (Human), UniProt P36888, K663Q)
Outline: as §1

RIOK3 = RIOK3 (Homo sapiens (Human), UniProt O14730)
Outline: as §1

DRAK2 = DRAK2 (Homo sapiens (Human), UniProt O94768)
Outline: as §1

TNNI3K = TNNI3K (Homo sapiens (Human), UniProt Q59H18)
Outline: as §1

PRKCE = PRKCE (Homo sapiens (Human), UniProt Q02156)
Outline: as §1

KIT-autoinhibited = KIT-autoinhibited (Homo sapiens (Human), UniProt P10721)
Outline: as §1

MET(Y1235D) = MET(Y1235D) (Homo sapiens (Human), UniProt P08581, Y1235D)
Outline: as §1

AURKC = AURKC (Homo sapiens (Human), UniProt Q9UQB9)
Outline: as §1

[2] = target: RSK4(Kin.Dom.2-C-terminal) (Homo sapiens (Human), UniProt Q9UK32)
Outline: as §1

[3] = target: ABL1(H396P)-nonphosphorylated (Homo sapiens (Human), UniProt P00519, H396P)
Outline: as §1

ABL2 = ABL2 (Homo sapiens (Human), UniProt P42684)
Outline: as §1

TRKB = TRKB (Homo sapiens (Human), UniProt Q16620)
Outline: as §1

MYO3B = MYO3B (Homo sapiens (Human), UniProt Q8WXR4)
Outline: as §1

WNK4 = WNK4 (Homo sapiens (Human), UniProt Q96J92)
Outline: as §1

CSNK1A1 = CSNK1A1 (Homo sapiens (Human), UniProt P48729)
Outline: as §1

SgK110 = SgK110 (Homo sapiens (Human), UniProt P0C264)
Outline: as §1

EPHB6 = EPHB6 (Homo sapiens (Human), UniProt O15197)
Outline: as §1

SIK2 = SIK2 (Homo sapiens (Human), UniProt Q9H0K1)
Outline: as §1

ULK2 = ULK2 (Homo sapiens (Human), UniProt Q8IYT8)
Outline: as §1

MARK1 = MARK1 (Homo sapiens (Human), UniProt Q9P0L2)
Outline: as §1

AKT2 = AKT2 (Homo sapiens (Human), UniProt P31751)
Outline: as §1

[4] = target: RPS6KA5(Kin.Dom.1-N-terminal) (Homo sapiens (Human), UniProt O75582)
Outline: as §1

MELK = MELK (Homo sapiens (Human), UniProt Q14680)
Outline: as §1

PIK3C2B = PIK3C2B (Homo sapiens (Human), UniProt O00750)
Outline: as §1

IGF1R = IGF1R (Homo sapiens (Human), UniProt P08069)
Outline: as §1

MYO3A = MYO3A (Homo sapiens (Human), UniProt Q8NEV4)
Outline: as §1

TRPM6 = TRPM6 (Homo sapiens (Human), UniProt Q9BX84)
Outline: as §1

TYRO3 = TYRO3 (Homo sapiens (Human), UniProt Q06418)
Outline: as §1

OSR1 = OSR1 (Homo sapiens (Human), UniProt O95747)
Outline: as §1

ITK = ITK (Homo sapiens (Human), UniProt Q08881)
Outline: as §1

TAK1 = TAK1 (Homo sapiens (Human), UniProt O43318)
Outline: as §1

DCAMKL1 = DCAMKL1 (Homo sapiens (Human), UniProt O15075)
Outline: as §1

GRK4 = GRK4 (Homo sapiens (Human), UniProt P32298)
Outline: as §1

MAP3K1 = MAP3K1 (Homo sapiens (Human), UniProt Q13233)
Outline: as §1

IGF1R, sequence (P08069 31-1367): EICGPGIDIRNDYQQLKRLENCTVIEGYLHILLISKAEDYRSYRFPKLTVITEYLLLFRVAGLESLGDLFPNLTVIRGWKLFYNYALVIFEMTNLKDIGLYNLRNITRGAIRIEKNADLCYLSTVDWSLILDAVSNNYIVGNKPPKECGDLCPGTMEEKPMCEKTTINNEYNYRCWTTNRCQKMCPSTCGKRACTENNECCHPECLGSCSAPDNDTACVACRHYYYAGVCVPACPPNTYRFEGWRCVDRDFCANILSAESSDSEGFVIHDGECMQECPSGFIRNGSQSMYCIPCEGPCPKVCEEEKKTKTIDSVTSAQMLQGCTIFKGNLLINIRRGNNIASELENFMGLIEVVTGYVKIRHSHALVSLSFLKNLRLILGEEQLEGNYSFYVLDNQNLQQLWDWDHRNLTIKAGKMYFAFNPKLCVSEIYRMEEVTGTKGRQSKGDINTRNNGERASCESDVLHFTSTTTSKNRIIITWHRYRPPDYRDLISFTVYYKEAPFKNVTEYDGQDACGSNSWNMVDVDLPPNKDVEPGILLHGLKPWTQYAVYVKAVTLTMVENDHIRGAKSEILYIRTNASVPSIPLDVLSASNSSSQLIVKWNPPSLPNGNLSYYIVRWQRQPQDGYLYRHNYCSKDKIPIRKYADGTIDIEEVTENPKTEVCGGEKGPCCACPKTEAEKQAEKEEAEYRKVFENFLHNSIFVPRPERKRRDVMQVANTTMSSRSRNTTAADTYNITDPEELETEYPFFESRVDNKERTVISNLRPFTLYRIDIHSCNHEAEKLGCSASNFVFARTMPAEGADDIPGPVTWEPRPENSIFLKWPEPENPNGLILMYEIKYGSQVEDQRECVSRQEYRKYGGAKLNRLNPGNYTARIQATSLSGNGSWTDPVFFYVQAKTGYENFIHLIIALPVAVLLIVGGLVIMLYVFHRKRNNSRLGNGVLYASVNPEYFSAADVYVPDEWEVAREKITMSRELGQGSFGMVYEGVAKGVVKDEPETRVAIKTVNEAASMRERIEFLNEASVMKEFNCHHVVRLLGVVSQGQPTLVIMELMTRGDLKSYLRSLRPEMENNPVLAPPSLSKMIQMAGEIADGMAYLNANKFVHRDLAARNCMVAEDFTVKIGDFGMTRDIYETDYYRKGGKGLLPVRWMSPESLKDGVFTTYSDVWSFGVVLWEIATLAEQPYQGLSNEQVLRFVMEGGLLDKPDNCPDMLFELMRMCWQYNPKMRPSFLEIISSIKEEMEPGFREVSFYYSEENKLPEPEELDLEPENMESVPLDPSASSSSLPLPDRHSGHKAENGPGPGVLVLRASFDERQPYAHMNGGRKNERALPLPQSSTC
SIK2, sequence (Q9H0K1 whole entry): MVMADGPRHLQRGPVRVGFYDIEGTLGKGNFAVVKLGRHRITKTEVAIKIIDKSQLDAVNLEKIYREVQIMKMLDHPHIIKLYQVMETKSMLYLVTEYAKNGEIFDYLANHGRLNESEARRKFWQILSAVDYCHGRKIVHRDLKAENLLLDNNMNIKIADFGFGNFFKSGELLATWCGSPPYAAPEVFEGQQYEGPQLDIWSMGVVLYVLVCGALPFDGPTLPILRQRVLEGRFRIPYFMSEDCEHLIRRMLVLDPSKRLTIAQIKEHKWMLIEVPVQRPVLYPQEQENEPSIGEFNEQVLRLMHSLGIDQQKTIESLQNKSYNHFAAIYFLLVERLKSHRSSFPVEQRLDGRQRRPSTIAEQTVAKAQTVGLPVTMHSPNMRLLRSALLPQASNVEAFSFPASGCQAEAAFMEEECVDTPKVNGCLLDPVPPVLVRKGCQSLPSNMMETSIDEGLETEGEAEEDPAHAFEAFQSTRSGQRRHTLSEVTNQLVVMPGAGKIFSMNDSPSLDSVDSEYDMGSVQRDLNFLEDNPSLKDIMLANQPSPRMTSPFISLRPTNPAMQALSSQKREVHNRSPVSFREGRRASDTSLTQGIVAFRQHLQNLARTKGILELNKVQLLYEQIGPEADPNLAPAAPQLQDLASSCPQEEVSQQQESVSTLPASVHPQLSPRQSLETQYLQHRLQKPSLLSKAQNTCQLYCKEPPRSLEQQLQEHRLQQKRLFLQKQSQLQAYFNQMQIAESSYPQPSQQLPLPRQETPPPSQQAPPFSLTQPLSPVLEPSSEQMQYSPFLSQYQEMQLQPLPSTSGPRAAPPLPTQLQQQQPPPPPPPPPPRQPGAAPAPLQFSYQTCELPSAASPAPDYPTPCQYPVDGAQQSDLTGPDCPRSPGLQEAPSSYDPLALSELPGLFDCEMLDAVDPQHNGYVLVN
CAMK1B, sequence (Q6P2M8 whole entry): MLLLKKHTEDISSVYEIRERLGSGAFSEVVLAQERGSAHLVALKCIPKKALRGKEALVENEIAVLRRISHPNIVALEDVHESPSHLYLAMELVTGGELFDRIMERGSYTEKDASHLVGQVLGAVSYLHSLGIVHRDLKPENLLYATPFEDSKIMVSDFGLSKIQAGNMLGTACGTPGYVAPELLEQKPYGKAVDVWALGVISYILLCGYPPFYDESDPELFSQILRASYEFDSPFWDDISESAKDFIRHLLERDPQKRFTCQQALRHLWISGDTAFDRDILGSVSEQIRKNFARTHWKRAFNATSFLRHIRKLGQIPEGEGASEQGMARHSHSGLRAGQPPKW
PAK1, sequence (Q13153 whole entry): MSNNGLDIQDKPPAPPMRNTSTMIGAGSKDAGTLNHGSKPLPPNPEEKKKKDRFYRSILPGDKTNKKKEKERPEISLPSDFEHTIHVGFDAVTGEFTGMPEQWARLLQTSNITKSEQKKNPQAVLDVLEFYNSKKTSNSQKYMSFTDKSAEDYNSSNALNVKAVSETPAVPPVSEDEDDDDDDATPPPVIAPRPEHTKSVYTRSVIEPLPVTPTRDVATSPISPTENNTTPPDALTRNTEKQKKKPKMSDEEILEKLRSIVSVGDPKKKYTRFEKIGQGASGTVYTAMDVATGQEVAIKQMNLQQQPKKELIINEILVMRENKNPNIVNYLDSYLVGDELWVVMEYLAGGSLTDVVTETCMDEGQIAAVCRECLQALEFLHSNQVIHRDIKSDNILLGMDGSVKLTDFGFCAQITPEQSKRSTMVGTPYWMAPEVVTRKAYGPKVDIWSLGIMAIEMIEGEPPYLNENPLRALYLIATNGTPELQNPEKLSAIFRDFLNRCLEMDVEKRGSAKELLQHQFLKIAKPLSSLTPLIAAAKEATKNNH
PRKCE, sequence (Q02156 whole entry): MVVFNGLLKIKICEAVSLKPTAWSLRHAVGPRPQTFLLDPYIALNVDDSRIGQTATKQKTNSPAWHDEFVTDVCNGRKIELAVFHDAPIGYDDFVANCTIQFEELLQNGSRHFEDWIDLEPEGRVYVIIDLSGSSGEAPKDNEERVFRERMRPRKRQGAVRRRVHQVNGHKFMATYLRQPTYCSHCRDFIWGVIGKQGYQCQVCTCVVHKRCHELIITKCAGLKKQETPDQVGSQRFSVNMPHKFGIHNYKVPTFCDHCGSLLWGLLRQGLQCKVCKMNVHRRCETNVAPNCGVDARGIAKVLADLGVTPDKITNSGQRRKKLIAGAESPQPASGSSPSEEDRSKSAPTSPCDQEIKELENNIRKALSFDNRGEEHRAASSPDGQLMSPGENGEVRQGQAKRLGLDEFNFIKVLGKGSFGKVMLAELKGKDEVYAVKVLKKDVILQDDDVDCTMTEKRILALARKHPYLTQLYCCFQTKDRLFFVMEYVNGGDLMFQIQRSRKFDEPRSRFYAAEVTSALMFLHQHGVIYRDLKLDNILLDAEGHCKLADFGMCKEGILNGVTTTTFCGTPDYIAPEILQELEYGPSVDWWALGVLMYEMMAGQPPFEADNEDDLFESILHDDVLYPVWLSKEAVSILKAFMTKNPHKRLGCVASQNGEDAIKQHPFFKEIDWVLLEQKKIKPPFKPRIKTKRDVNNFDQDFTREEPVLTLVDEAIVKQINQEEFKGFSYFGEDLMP
EPHB6, sequence (O15197 32-1021): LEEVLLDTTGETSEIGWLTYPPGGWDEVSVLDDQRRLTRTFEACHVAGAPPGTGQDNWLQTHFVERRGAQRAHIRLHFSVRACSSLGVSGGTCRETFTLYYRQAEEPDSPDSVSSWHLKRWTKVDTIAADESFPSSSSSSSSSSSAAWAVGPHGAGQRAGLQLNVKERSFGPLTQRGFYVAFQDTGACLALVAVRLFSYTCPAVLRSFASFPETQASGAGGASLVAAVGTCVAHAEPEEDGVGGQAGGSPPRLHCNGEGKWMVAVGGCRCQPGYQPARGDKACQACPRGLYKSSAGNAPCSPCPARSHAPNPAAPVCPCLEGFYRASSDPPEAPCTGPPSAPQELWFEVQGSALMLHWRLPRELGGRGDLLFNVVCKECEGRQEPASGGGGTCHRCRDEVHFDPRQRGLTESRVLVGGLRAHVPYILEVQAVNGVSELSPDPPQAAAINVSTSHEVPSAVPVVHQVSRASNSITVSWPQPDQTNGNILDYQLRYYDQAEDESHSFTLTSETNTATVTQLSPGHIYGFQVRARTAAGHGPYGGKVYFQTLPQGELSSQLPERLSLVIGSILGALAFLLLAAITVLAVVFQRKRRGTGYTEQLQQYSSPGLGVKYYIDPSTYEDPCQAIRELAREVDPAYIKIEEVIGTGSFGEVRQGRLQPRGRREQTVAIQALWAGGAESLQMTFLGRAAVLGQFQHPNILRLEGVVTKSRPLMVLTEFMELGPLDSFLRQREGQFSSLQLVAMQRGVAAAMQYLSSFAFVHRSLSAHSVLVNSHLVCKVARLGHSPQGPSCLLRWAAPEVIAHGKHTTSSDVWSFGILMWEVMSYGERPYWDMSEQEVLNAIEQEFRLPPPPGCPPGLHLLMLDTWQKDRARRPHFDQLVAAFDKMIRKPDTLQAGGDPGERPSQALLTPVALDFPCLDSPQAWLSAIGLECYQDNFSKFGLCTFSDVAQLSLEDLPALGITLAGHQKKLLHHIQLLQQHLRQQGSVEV

| Compound | remaining binding at 1 µM [1] | remaining binding at 1 µM (PAK1) | remaining binding at 1 µM (YANK3) | remaining binding at 1 µM (WEE2) | remaining binding at 1 µM (CAMK1B) | remaining binding at 1 µM (FLT3(K663Q)) | remaining binding at 1 µM (RIOK3) | remaining binding at 1 µM (DRAK2) | remaining binding at 1 µM (TNNI3K) | remaining binding at 1 µM (PRKCE) | remaining binding at 1 µM (KIT-autoinhibited) | remaining binding at 1 µM (MET(Y1235D)) | remaining binding at 1 µM (AURKC) | remaining binding at 1 µM [2] | remaining binding at 1 µM [3] | remaining binding at 1 µM (ABL2) | remaining binding at 1 µM (TRKB) | remaining binding at 1 µM (MYO3B) | remaining binding at 1 µM (WNK4) | remaining binding at 1 µM (CSNK1A1) | other results |
| --- | --- | --- | --- | --- | --- | --- | --- | --- | --- | --- | --- | --- | --- | --- | --- | --- | --- | --- | --- | --- | --- |
| CCNc1cc(Nc2ccc(C(=O)N3CCC(N4CCOCC4)CC3)cc2OC)nc2[nH]cc(C(F)(F)F)c12 [Example 57, (4-((4-(ethylamino)-3-(trifluoromethyl)-1H-pyrrolo[2,3-b]pyridin-6-yl)amino)-3-methoxyphenyl) (4-morpholinopiperidin-1-yl)methanone] | 86% | 73% | 71% | 96% | 81% | 94% | 96% | 69% | 100% | 64% | 100% | 85% | 95% | 80% | 68% | 98% | 100% | 83% | 100% | 51% | remaining binding at 1 µM (SgK110): 96%; remaining binding at 1 µM (EPHB6): 99%; remaining binding at 1 µM (SIK2): 95%; remaining binding at 1 µM (ULK2): 93%; remaining binding at 1 µM (MARK1): 82%; remaining binding at 1 µM (AKT2): 90%; remaining binding at 1 µM [4]: 100%; remaining binding at 1 µM (MELK): 69%; remaining binding at 1 µM (PIK3C2B): 78%; remaining binding at 1 µM (IGF1R): 71%; remaining binding at 1 µM (MYO3A): 70%; remaining binding at 1 µM (TRPM6): 97%; remaining binding at 1 µM (TYRO3): 96%; remaining binding at 1 µM (OSR1): 82%; remaining binding at 1 µM (ITK): 97%; remaining binding at 1 µM (TAK1): 79%; remaining binding at 1 µM (DCAMKL1): 86%; remaining binding at 1 µM (GRK4): 100%; remaining binding at 1 µM (MAP3K1): 79% |
| CCNc1cc(Nc2ccc(C(=O)N3CCC(N4CCOCC4)CC3)cc2OC)nc2[nH]cc(C#N)c12 [Example 18, 4-(ethylamino)-6-((2-methoxy-4-(4-morpholinopiperidine-1-carbonyl)phenyl)amino)-1H-pyrrolo[2,3-b]pyridine-3-carbonitrile] | 95% | 92% | 96% | 91% | 34% | 84% | 98% | 27% | 91% | 77% | 66% | 100% | 92% | 71% | 89% | 93% | 100% | 73% | 79% | 8.2% | remaining binding at 1 µM (SgK110): 100%; remaining binding at 1 µM (EPHB6): 78%; remaining binding at 1 µM (SIK2): 87%; remaining binding at 1 µM (ULK2): 67%; remaining binding at 1 µM (MARK1): 84%; remaining binding at 1 µM (AKT2): 87%; remaining binding at 1 µM [4]: 100%; remaining binding at 1 µM (MELK): 62%; remaining binding at 1 µM (PIK3C2B): 100%; remaining binding at 1 µM (IGF1R): 74%; remaining binding at 1 µM (MYO3A): 71%; remaining binding at 1 µM (TRPM6): 87%; remaining binding at 1 µM (TYRO3): 80%; remaining binding at 1 µM (OSR1): 41%; remaining binding at 1 µM (ITK): 87%; remaining binding at 1 µM (TAK1): 59%; remaining binding at 1 µM (DCAMKL1): 85%; remaining binding at 1 µM (GRK4): 100%; remaining binding at 1 µM (MAP3K1): 90% |
